In patent publication US20230406849A1, “KRAS INHIBITORS FOR TREATMENT OF CANCERS” (TYLIGAND BIOSCIENCE (SHANGHAI) LIMITED, priority 2020, published 2023):
Read-outs that look alike come from different tables or passages of the source.

How the values were obtained:
Assay in all cases: CYP inhibition in human liver microsomes
Format in all cases: in vitro ADME
[1] = biological target: T1, CYP1A2 (Homo sapiens, UniProt P05177); conditions: pH 7.4, read-out: CYP inhibition rate (%) 1A2
T1 construct: Human liver microsomes (Corning, Cat #452161); tissue Corning 452161; host or cells: human liver microsomes
T1 sequence (P05177 1-516): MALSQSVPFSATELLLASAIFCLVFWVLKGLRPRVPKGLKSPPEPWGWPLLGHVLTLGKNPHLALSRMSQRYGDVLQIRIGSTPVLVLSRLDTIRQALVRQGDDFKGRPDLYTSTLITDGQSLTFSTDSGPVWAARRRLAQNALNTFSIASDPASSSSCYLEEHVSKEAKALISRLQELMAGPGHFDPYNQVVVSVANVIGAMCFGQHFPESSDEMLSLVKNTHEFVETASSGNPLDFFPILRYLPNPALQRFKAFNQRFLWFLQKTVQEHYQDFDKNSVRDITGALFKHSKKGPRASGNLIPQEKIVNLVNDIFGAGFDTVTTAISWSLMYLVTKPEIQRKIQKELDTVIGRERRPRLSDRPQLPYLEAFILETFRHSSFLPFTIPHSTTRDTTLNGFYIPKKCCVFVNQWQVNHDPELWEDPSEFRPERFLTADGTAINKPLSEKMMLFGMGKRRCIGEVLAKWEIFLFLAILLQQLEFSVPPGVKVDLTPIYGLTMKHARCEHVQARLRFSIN
From the text: (§1) The inhibitory effect of the compounds of the present disclosure on the cytochrome P450 enzyme system was investigated in this assay.
(§2) [Test materials]: Human liver microsomes (Corning, Cat #452161); Reduced nicotinamide adenine dinucleotide phosphate (NADPH, MCE, Cat #HY-F0003/CS-4998); Phenacetin, Diclofenac, α-naphthoflavone, Omeprazole and Ketoconazole were purchased from TCI; S-Mephenytoin and testosterone were purchased from CAYMAN; Midazolam was purchased from Bioreclamation IVT; Quinidine was purchased from Damas-beta; Sulfaphenazole was purchased from MCE; Bufuralol was purchased from TRC.
(§3) [Experimental procedure]: Preparation of 0.1M potassium phosphate buffer (K-buffer): 100 mM potassium phosphate buffer (K-buffer) was prepared with potassium dihydrogen phosphate and dipotassium hydrogen phosphate, and adjusted to pH 7.4.
(§4) Preparation of 400× test compound and reference inhibitor solutions: 8 μL of 10 mM stock solution of the test compounds was mixed with 12 μL of acetonitrile. Preparation of inhibitor cocktail solution for CYP1A2, CYP2C9 and CYP2D6: […] of 1 mM α-naphthoflavone, 10 µL of 40 mM Sulfaphenazole, 10 μL of 10 mM Quinidine and 8 μL DMSO were mixed. Preparation of inhibitor cocktail solution for CYP3A4 and CYP2C19: 8 μL of DMSO solution was mixed with 12 μL of acetonitrile.
(§5) Preparation of 4×NADPH potassium phosphate solution: 66.7 mg of NADPH was added to 10 mL of K-buffer pH7.4. Preparation of 4× substrate potassium phosphate solution: the different substrates were prepared to 4-fold concentration test solutions with 10 mL 0.1M K-buffer according to the concentration requirements.
(§6) Preparation of 0.2 mg/mL human liver microsomes (HLM) solution: […] of 20 mg/mL human liver microsomes was added to […] K-buffer, and the solution was stored in ice bath until use.
(§7) 600 μL of 0.2 mg/mL HLM was added to a 96-well plate, followed by the addition of 3 μL of a 400-fold test compound solution; 200 μL of 0.2 mg/mL HLM was added to a 96-well plate, and 1 μL of the diluted positive control inhibitor solution was added. 30 μL of the compound solution mixed with human liver microsomes was added into a 96-well plate, and 15 μL of substrate solution was added then. The solutions obtained above, and the prepared NADPH solution were pre-incubated at 37° C. for 5 min. 15 μL of the pre-warmed NADPH solution was added to the reaction plate, mixed well, to initiate the reaction. The reaction plate was incubated at 37° C., for 5 minutes (3A4), for 10 minutes (1A2, 2C9, 2D6), for 45 minutes (2C19). At the end of the reaction, 120 μL of acetonitrile containing internal standard was added to quenched the reaction. Samples were vortexed for 10 min, centrifuged at 5594 g for 15 min, and prepared for LC-MS/MS analysis.

[2] = biological target: T2, CYP2C19 (Homo sapiens, UniProt P33261); conditions: pH 7.4, read-out: CYP inhibition rate (%) 2C19
T2 construct: Human liver microsomes (Corning, Cat #452161); tissue Corning 452161; host or cells: human liver microsomes
T2 sequence (P33261 whole entry): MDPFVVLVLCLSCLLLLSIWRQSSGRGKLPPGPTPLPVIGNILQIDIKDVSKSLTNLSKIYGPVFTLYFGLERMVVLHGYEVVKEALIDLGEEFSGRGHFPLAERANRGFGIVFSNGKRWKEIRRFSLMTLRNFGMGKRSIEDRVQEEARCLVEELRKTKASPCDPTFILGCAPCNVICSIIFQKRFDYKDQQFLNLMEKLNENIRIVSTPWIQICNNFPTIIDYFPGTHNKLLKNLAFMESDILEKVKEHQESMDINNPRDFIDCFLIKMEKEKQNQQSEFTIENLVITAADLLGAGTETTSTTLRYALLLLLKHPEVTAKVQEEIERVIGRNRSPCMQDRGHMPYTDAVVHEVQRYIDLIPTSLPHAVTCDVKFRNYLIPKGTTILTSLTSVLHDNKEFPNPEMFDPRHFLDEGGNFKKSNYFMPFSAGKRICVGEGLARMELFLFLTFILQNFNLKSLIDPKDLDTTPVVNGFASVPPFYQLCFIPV
From the text: as §1, §2, §3, §4, §5, §6, §7

[3] = biological target: T3, CYP2C9 (Homo sapiens, UniProt P11712); conditions: pH 7.4, read-out: CYP inhibition rate (%) 2C9
T3 construct: Human liver microsomes (Corning, Cat #452161); tissue Corning 452161; host or cells: human liver microsomes
T3 sequence (P11712 whole entry): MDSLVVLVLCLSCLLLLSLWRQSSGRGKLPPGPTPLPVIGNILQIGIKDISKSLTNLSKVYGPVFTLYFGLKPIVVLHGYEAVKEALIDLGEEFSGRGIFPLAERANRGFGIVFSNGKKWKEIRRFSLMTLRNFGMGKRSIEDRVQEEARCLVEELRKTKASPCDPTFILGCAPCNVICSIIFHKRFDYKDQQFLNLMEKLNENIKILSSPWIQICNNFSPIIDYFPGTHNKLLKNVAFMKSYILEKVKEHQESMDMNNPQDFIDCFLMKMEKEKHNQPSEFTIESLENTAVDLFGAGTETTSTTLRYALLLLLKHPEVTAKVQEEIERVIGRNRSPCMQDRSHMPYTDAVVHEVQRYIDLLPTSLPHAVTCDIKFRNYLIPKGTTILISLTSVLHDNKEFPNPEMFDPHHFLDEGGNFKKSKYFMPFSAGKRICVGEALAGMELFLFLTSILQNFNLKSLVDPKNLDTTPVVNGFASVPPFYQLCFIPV
From the text: as §1, §2, §3, §4, §5, §6, §7

[4] = biological target: T4, CYP2D6 (Homo sapiens, UniProt P10635); conditions: pH 7.4, read-out: CYP inhibition rate (%) 2D6
T4 construct: Human liver microsomes (Corning, Cat #452161); tissue Corning 452161; host or cells: human liver microsomes
T4 sequence (P10635 whole entry): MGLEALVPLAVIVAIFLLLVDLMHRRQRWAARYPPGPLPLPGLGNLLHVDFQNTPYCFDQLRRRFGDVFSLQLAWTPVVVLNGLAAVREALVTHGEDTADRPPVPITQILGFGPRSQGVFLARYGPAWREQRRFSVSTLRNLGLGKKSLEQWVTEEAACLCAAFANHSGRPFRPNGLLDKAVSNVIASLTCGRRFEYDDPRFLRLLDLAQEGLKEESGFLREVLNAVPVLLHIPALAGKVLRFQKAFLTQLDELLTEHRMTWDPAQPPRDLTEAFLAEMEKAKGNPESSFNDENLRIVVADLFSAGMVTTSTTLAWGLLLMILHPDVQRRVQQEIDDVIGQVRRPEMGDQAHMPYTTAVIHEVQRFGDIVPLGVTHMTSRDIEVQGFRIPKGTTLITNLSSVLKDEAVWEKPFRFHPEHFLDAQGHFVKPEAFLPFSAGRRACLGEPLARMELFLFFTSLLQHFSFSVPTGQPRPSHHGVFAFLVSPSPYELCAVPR
From the text: as §1, §2, §3, §4, §5, §6, §7

[5] = biological target: T5, CYP3A4 (Homo sapiens, UniProt P08684)
T5 construct: Human liver microsomes (Corning, Cat #452161); tissue Corning 452161; host or cells: human liver microsomes
T5 sequence (P08684 whole entry): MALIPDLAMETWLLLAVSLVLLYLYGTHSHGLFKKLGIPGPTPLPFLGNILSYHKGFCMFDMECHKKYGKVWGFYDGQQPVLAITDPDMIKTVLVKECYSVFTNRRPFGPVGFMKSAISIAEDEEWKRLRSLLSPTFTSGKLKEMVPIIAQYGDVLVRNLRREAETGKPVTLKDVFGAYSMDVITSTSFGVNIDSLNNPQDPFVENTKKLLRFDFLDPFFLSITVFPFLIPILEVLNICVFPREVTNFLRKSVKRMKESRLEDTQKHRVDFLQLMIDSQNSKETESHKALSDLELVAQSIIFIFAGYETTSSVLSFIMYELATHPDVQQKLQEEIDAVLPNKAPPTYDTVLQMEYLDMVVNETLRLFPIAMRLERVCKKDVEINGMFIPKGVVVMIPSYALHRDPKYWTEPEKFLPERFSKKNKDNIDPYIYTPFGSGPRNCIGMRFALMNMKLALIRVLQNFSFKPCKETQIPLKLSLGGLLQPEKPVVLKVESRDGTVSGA
From the text: as §1, §2, §3, §4, §5, §6, §7

[6] = pH 7.4, probe midazolam, substrate midazolam, read-out: CYP inhibition rate (%) CYP3A4 (midazolam)
[7] = pH 7.4, probe testosterone, substrate testosterone, read-out: CYP inhibition rate (%) CYP3A4 (testosterone)

| inhibition at 10 min, 10 µM [1] | inhibition at 45 min, 10 µM [2] | inhibition at 10 min, 10 µM [3] | inhibition at 10 min, 10 µM [4] | inhibition at 5 min, 10 µM [5, 6] | inhibition at 5 min, 10 µM [5, 7] | Structure (SMILES) |
| --- | --- | --- | --- | --- | --- | --- |
| 17.6% | 31.2% | 49.9% | 13.8% | 22% | 16.9% | C=CC(=O)N1CCN(c2c(C#N)cnc3c(F)c(-c4ccc(F)c5sc(N)nc45)c(Cl)cc23)C[C@H]1C [Example 8, 4-((R)-4-acryloyl-3-methylpiperazin-1-yl)-7-(2-amino-7-fluorobenzo[d]thiazol-4-yl)-6-chloro-8-fluoroquinoline-3-carbonitrile] |
| 73% | 74.3% | 52.4% | 32.6% | 11.1% | 10.9% | C=CC(=O)N1CCN(c2ncnc3c(F)c(-c4ccc(F)c5sc(N)nc45)c(Cl)cc23)CC1 [Ref. Comp. A, reference compound] |
| 10.3% | 11.1% | 26.2% | 23.7% | 63.7% | 24.8% | C=CC(=O)N1CCN(c2nc(=O)n(-c3c(C)ccnc3C(C)C)c3nc(-c4c(O)cccc4F)c(F)cc23)[C@@H](C)C1 (atropisomer, axis not shown) [AMG510, reference compound] |
| 13.6% | 34.9% | 42.5% | -11.4% | 24% | 30.9% | C=CC(=O)N1CCN(c2c(C#N)cnc3c(F)c(-c4ccc(F)c5sc(N)nc45)c(Cl)cc23)CC1 [Example 9, 4-(4-Acryloylpiperazin-1-yl)-7-(2-amino-7-fluorobenzo[d]thiazol-4-yl)-6-chloro-8-fluoroquinoline-3-carbonitrile] |
